pEC50: −log10 of the molar value.
Molecular target: T1, HEK cells stably transfected with tetracycline inducible hNR1 and hNR2A (Homo sapiens, UniProt Q05586+Q12879)
T1 construct: expressed in transfected cells; host or cells: HEK cells, stably transfected, tetracycline/doxycycline inducible
Experiment: Assay 1: Cell-Based Assay, cytosolic calcium response to positive allosteric modulators (with 30 μM glycine and 300 nM L-glutamate, EC30)
Settings: Table 2; for Max %: responses scaled relative to 100 μM L-glutamate maximal response (100%) and 0 μM L-glutamate (0%); for pEC50: cytosolic calcium response, with 30 μM glycine and 300 nM L-glutamate (EC30), — = no plateau was reached
In short: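 Cells induced 24 h with 7.5 μg mL^−1 doxycycline plus 500 μM (+)-ketamine, loaded 60 min at 37 °C with calcium dye in Mg-free HBSS (1.8 mM Ca, probenecid, 10 μM (+)-ketamine, pH 7.15). Peak RFU over 5 min after compound addition, scaled to 100 μM L-glutamate (100%) and 0 μM (0%); four-parameter Hill fit for EC50, max % if no plateau.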

T1 sequence (Q12879 23-1464, other chains not shown): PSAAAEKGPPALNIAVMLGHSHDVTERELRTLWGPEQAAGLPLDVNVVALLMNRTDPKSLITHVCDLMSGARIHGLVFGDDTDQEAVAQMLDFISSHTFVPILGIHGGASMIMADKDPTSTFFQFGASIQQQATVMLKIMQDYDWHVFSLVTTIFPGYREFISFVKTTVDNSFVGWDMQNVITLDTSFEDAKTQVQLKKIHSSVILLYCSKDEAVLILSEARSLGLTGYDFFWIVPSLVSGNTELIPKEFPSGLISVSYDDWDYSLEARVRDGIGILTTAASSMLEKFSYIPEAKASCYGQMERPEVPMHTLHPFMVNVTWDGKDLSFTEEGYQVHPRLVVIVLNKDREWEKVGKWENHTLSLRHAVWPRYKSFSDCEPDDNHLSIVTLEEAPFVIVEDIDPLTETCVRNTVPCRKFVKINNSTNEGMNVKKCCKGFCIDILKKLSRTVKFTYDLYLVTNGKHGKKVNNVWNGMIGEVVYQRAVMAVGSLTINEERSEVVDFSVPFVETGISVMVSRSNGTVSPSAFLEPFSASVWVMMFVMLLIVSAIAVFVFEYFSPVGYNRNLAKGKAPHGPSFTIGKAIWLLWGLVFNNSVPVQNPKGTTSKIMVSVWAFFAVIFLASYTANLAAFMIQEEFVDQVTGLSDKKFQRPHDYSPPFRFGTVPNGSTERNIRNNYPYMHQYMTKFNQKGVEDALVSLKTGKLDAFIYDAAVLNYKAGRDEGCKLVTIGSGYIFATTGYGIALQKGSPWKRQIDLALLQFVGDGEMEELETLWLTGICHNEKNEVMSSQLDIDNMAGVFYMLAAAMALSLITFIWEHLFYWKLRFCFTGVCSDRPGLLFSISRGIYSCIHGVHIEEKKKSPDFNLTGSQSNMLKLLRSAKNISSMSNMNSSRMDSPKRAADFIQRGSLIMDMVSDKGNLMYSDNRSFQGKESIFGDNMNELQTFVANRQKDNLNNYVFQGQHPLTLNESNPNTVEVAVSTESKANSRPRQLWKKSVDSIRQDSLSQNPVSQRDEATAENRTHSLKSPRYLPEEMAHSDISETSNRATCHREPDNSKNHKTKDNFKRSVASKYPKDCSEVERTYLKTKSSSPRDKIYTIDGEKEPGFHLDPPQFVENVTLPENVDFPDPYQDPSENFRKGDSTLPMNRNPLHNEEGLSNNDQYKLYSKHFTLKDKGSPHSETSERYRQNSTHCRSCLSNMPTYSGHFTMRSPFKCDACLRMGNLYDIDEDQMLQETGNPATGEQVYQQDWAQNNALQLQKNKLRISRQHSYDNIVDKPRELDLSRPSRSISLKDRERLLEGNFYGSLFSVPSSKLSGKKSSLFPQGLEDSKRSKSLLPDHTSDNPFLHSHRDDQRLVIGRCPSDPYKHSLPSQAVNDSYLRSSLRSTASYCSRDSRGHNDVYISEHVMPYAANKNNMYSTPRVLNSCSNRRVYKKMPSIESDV

`COCC1CC1c1c(C)sc2nc(COc3ccc(F)cc3)cc(=O)n12` (stereo not drawn) [Example 4.27, 7-(4-Fluorophenoxymethyl)-3-[2-(methoxymethyl)cyclopropyl]-2-methyl-5H-[1,3]thiazolo[3,2-a]pyrimidin-5-one] gave a Max % of 103%.
In the case of `Cc1sc2nc(COc3ccc(F)cc3)cc(=O)n2c1C1CC1CF` (stereo not drawn) [Example 4.28, 3-(2-(fluoromethyl)cyclopropyl)-7-((4-fluorophenoxy)methyl)-2-methyl-5H-thiazolo[3,2-a]pyrimidin-5-one], the pEC50 was 5.47 and the Max % was 89%.
Molecule `Cc1sc2nc(COc3ccc(F)cc3)cc(=O)n2c1CCCO` [Example 4.30, 7-(4-Fluorophenoxymethyl)-3-(3-hydroxypropyl)-2-methyl-5H-[1,3]thiazolo[3,2-a]pyrimidin-5-one] has a pEC50 of 4.81 and a Max % of 75.4%.
Work on `COCc1c(C)sc2nc(COc3ccc(F)cc3)cc(=O)n12` [Example 4.31, 7-(4-Fluorophenoxymethyl)-3-(methoxymethyl)-2-methyl-5H-[1,3]thiazolo[3,2-a]pyrimidin-5-one] yielded a Max % of 43.3%.
In the case of `Cc1sc2nc(COc3ccc(F)cc3)cc(=O)n2c1C1(O)COC1` [Example 4.32, 7-((4-fluorophenoxy)methyl)-3-(3-hydroxyoxetan-3-yl)-2-methyl-5H-thiazolo[3,2-a]pyrimidin-5-one], the Max % was 50.2%.
Molecule `Cc1sc2nc(COc3ccc(F)cc3)cc(=O)n2c1C(C)CCO` (stereo not drawn) [Example 4.33, 7-(4-Fluorophenoxymethyl)-3-(4-hydroxybutan-2-yl)-2-methyl-5H-[1,3]thiazolo[3,2-a]pyrimidin-5-one] has a pEC50 of 4.86 and a Max % of 121%.
Molecule `Cc1sc2nc(COc3ccc(F)cc3)cc(=O)n2c1C1CC1C(C)(C)O` (stereo not drawn) [Example 4.34, 7-(4-Fluorophenoxymethyl)-3-[2-(2-hydroxypropan-2-yl)cyclopropyl]-2-methyl-5H-[1.3]thiazolo[3,2-a]pyrimidin-5-one] has a Max % of 49.2%.
Work on `CCN(Cc1cc(=O)n2c(-c3cncnc3)c(C)sc2n1)c1ccc(F)cc1` [Example 5.1, 7-[(N-ethyl-4-fluoro-anilino)methyl]-2-methyl-3-pyrimidin-5-yl-thiazolo[3,2-a]pyrimidin-5-one] yielded a pEC50 of 6.25 and a Max % of 145.1%.
In the case of `Cc1sc2nc(CN(C)c3ccc(F)cc3)cc(=O)n2c1-c1cncnc1` [Example 5.2, 7-(((4-fluorophenyl)(methyl)amino)methyl)-2-methyl-3-(pyrimidin-5-yl)-5H-thiazolo[3,2-a]pyrimidin-5-one], the pEC50 was 5.24 and the Max % was 148%.
`Cc1sc2nc(CN(CC(F)(F)F)c3ccc(F)cc3)cc(=O)n2c1-c1cncnc1` [Example 5.3, 7-(((4-fluorophenyl)(2,2,2-trifluoroethyl)amino)methyl)-2-methyl-3-(pyrimidin-5-yl)-5H-thiazolo [3,2-a]pyrimidin-5-one] gave a pEC50 of 5.66 and a Max % of 177%.
For `CCN(Cc1cc(=O)n2c(-c3cncnc3)c(C)sc2n1)c1ccc(F)c(F)c1` [Example 5.4, 7-(((3,4-difluorophenyl)(ethyl)amino)methyl)-2-methyl-3-(pyrimidin-5-yl)-5H-thiazolo[3,2-a]pyrimidin-5-one], the pEC50 was 6.02 and the Max % was 172%.
`CCN(Cc1cc(=O)n2c(-c3cncnc3)c(C)sc2n1)c1cccc(F)c1` [Example 5.5, 7-((ethyl(3-fluorophenyl)amino)methyl)-2-methyl-3-(pyrimidin-5-yl)-5H-thiazolo[3,2-a]pyrimidin-5-one] gave a pEC50 of 5.62 and a Max % of 168%.
Work on `Cc1sc2nc(CN(CC(F)F)c3ccc(F)cc3)cc(=O)n2c1-c1cncnc1` [Example 5.6, 7-(((2,2-difluoroethyl)(4-fluorophenyl)amino)methyl)-2-methyl-3-(pyrimidin-5-yl)-5H-thiazolo[3,2-a] pyrimidin-5-one] yielded a pEC50 of 6.12 and a Max % of 164%.
`CCN(Cc1cc(=O)n2c(-c3nccs3)c(C)sc2n1)c1ccc(F)cc1` [Example 5.8, 7-((ethyl(4-fluorophenyl)amino)methyl)-2-methyl-3-(thiazol-2-yl)-5H-thiazolo[3,2-a]pyrimidin-5-one] showed a pEC50 of 6.17 and a Max % of 156%.
Molecule `CCN(Cc1cc(=O)n2c(-c3cccs3)c(C)sc2n1)c1ccc(F)cc1` [Example 5.9, 7-((ethyl(4-fluorophenyl)amino)methyl)-2-methyl-3-(thiophen-2-yl)-5H-thiazolo[3,2-a]pyrimidin-5-one] has a pEC50 of 5.89 and a Max % of 143%.
With `CCN(Cc1cc(=O)n2c(-c3cncnc3)c(C)sc2n1)c1cccc(C#N)c1` [Example 5.10, 3-(ethyl((2-methyl-5-oxo-3-(pyrimidin-5-yl)-5H-thiazolo [3,2-a]pyrimidin-7-yl)methyl)amino)benzonitrile] the pEC50 was 4.74 and the Max % was 133%.
`CCN(Cc1cc(=O)n2c(-c3cccnc3N)c(C)sc2n1)c1ccc(F)cc1` [Example 5.11, 3-(2-aminopyridin-3-yl)-7-((ethyl(4-fluorophenyl)amino)methyl)-2-methyl-5H-thiazolo[3,2-a]pyrimidin-5-one] gave a pEC50 of 5.54 and a Max % of 118%.
Molecule `CCN(Cc1cc(=O)n2c(-c3cncnc3)c(C)sc2n1)c1ccccn1` [Example 5.12, 7-((ethyl(pyridine-2-yl)amino)methyl)-2-methyl-3-(pyrimidin-5-yl)-5H-thiazolo[3,2-a]pyrimidin-5-one] has a Max % of 106%.
For `Cc1sc2nc(CNc3ccc(F)cc3)cc(=O)n2c1-c1cncnc1` [Example 5.13, 7-((4-fluorophenylamino)methyl)-2-methyl-3-(pyrimidin-5-yl)-5H-thiazolo[3,2-a]pyrimidin-5-one], the Max % was 87.9%.
Molecule `CCCCc1c(C)sc2nc(CN(CC)c3ccc(F)cc3)cc(=O)n12` [Example 5.14, 3-butyl-7-((ethyl(4-fluorophenyl)amino)methyl)-2-methyl-5H-thiazolo[3,2-a]pyrimidin-5-one] has a pEC50 of 5.12 and a Max % of 111%.
For `CCN(Cc1cc(=O)n2c(-c3cncnc3)c(C3CC3)sc2n1)c1ccc(F)cc1` [Example 5.15, 2-cyclopropyl-7-[(N-ethyl-4-fluoro-anilino)methyl]-3-pyrimidin-5-yl-thiazolo[3,2-a]pyrimidin-5-one], the pEC50 was 5.15 and the Max % was 144%.
`CCc1sc2nc(CN(CC)c3ccc(F)cc3)cc(=O)n2c1-c1cncnc1` [Example 5.16, 2-ethyl-7-((ethyl(4-fluorophenyl)amino)methyl)-3-(pyrimidin-5-yl)-5H-thiazolo[3,2-a]pyrimidin-5-one] showed a pEC50 of 5.60 and a Max % of 157%.
`CCN(Cc1cc(=O)n2c(-c3cscn3)c(C)sc2n1)c1ccc(F)cc1` [Example 5.20, 7-[(N-ethyl-4-fluoro-anilino)methyl]-2-methyl-3-thiazol-4-yl-thiazolo[3,2-a]pyrimidin-5-one] showed a pEC50 of 6.09 and a Max % of 157%.
Molecule `CCN(Cc1cc(=O)n2c(-c3cccnc3)c(C)sc2n1)c1ccc(F)cc1` [Example 5.21, 7-[(N-ethyl-4-fluoro-anilino)methyl]-2-methyl-3-(3-pyridyl)thiazolo[3,2-a]pyrimidin-5-one] has a pEC50 of 6.23 and a Max % of 141%.
Molecule `CCN(Cc1cc(=O)n2c(-c3ccccc3)c(C)sc2n1)c1ccc(F)cc1` [Example 5.22, 7-[(N-ethyl-4-fluoro-anilino)methyl]-2-methyl-3-phenyl-thiazolo[3,2-a]pyrimidin-5-one] has a pEC50 of 5.80 and a Max % of 142%.
Work on `CCN(Cc1cc(=O)n2c(C)c(C)sc2n1)c1ccc(F)cc1` [Example 5.23, 7-[(N-ethyl-4-fluoro-anilino)methyl]-2,3-dimethyl-thiazolo[3,2-a]pyrimidin-5-one] yielded a pEC50 of 5.59 and a Max % of 135%.
With `CCN(Cc1cc(=O)n2c(-c3cncc(F)c3)c(C)sc2n1)c1ccc(F)cc1` [Example 5.24, 7-[(N-ethyl-4-fluoro-anilino)methyl]-3-(5-fluoro-3-pyridyl)-2-methyl-thiazolo[3,2-a]pyrimidin-5-one] the pEC50 was 6.14 and the Max % was 142%.
`CCN(Cc1cc(=O)n2c(-c3cccnc3F)c(C)sc2n1)c1ccc(F)cc1` [Example 5.25, 7-[(N-ethyl-4-fluoro-anilino)methyl]-3-(2-fluoro-3-pyridyl)-2-methyl-thiazolo[3,2-a]pyrimidin-5-one] was tested, and the pEC50 was 6.15 and the Max % was 141%.
`CCN(Cc1cc(=O)n2c(C3CC3)c(C)sc2n1)c1ccc(F)cc1` [Example 5.26, 3-cyclopropyl-7-[(N-ethyl-fluoro-anilino)methyl]-2-methyl-thiazolo[3,2-a]pyrimidin-5-one] gave a pEC50 of 6.25 and a Max % of 149%.
Molecule `CCN(Cc1cc(=O)n2c(-c3cnccn3)c(C)sc2n1)c1ccc(F)cc1` [Example 5.27, 7-[(N-ethyl-4-fluoro-anilino)methyl]-2-methyl-3-pyrazin-2-yl-thiazolo[3,2-a]pyrimidin-5-one] has a pEC50 of 5.96 and a Max % of 139%.
With `C=C(C)c1c(C)sc2nc(CN(CC)c3ccc(F)cc3)cc(=O)n12` [Example 5.29, 7-[(N-ethyl-4-fluoro-anilino)methyl]-3-isopropenyl-2-methyl-thiazolo[3,2-a]pyrimidin-5-one] the pEC50 was 6.35 and the Max % was 147%.
With `CCN(Cc1cc(=O)n2c(-c3ccnnc3)c(C)sc2n1)c1ccc(F)cc1` [Example 5.30, 7-[(N-ethyl-4-fluoro-anilino)methyl]-2-methyl-3-pyridazin-4-yl-thiazolo[3,2-a]pyrimidin-5-one] the pEC50 was 5.37 and the Max % was 132%.
`CCN(Cc1cc(=O)n2c(-c3cncc(Cl)c3)c(C)sc2n1)c1ccc(F)cc1` [Example 5.31, 3-(5-chloro-3-pyridyl)-7-[(N-ethyl-4-fluoro-anilino)methyl]-2-methyl-thiazolo[3,2-a]pyrimidin-5-one] gave a pEC50 of 5.57 and a Max % of 132%.
